Laboratory results taken from ChEMBL document CHEMBL4257591 (J Med Chem, 2018).
Active and inactive are the calls of the source. The rule behind the calls is not given here.

Tests used:
[1] = test system: Staphylococcus aureus; assay: Induction of cytoplasmic membrane depolarization in Staphylococcus aureus KCTC 1621 at 2 times MIC concentration by DiSC3(5)-dye based fluorescence spectrophotometry; format: functional, organism-based
[2] = test system: Escherichia coli; assay: Induction of membrane permeabilization in Escherichia coli KCTC 1682 assessed as PI-positive cells at 4 uM after 1 to 2 hrs by propidium iodide-staining based flow cytometry (reference value: 2.36%); format: functional
[3] = test system: Staphylococcus aureus; assay: Induction of membrane permeabilization in Staphylococcus aureus KCTC 1621 at 2 times MIC concentration up to 300 secs by SYTOX green uptake assay; format: functional, organism-based
[4] = Hemolytic activity in sheep RBC assessed as free hemoglobin level at 16 uM by ELISA relative to control; format: ADME, cell-based, Ovis aries, Erythrocyte; settings: sheep red blood cells (erythrocytes), read-out: Activity
[5] = test system: RAW264.7; assay: Cytotoxicity against mouse RAW264.7 cells at 32 uM after 48 hrs by MTT assay relative to control; format: cell-based; settings: raw264.7, 48 h
[6] = test system: Staphylococcus aureus; assay: Induction of membrane permeabilization in Staphylococcus aureus KCTC 1621 at 2 to 8 times MIC concentration up to 300 secs by SYTOX green uptake assay; format: functional, organism-based

CC[C@H](C)[C@H](NC(=O)CN)C(=O)NCC(=O)N[C@@H](C)C(=O)N[C@H](C(=O)N[C@@H](CC(C)C)C(=O)N[C@@H](CCCCN)C(=O)N[C@H](C(=O)N[C@@H](CC(C)C)C(=O)N[C@H](C(=O)N[C@H](C(=O)NCC(=O)N[C@@H](CC(C)C)C(=O)N1CCC[C@H]1C(=O)N[C@@H](C)C(=O)N[C@@H](CC(C)C)C(=O)N[C@H](C(=O)N[C@@H](CO)C(=O)N[C@@H](Cc1c[nH]c2ccccc12)C(=O)N[C@H](C(=O)N[C@@H](CCCCN)C(=O)N[C@@H](CCCNC(=N)N)C(=O)N[C@@H](CCCCN)C(=O)N[C@@H](CCCNC(=N)N)C(=O)N[C@@H](CCC(N)=O)C(=O)N[C@@H](CCC(N)=O)C(N)=O)[C@@H](C)CC)[C@@H](C)CC)[C@@H](C)O)[C@@H](C)O)C(C)C)C(C)C [MELITTIN]
Activity [1]: Active | Activity [2]: 55.5% | Activity [3]: Active | hemolysis at 16 µM [4]: 63% | Activity [5]: 100% | Activity [6]: inactive
